Data published in paper PMC11605156, “Triterpenoids from Ganoderma lucidum inhibit cytochrome P450 enzymes interfering with the metabolic process of specific clinical drugs” (Frontiers in Pharmacology, 2024).

What was measured:
CYP2A6 = molecular target: T1, CYP2A6 (Homo sapiens, UniProt P11509); assay: CYP2A6 inhibition, coumarin probe in human liver microsomes; conditions: human, human liver microsomes, pH 7.4, probe coumarin 2 μM, Residual activity (%) CYP2A6, HLM 0.5 mg/mL
T1 sequence (P11509 1-494): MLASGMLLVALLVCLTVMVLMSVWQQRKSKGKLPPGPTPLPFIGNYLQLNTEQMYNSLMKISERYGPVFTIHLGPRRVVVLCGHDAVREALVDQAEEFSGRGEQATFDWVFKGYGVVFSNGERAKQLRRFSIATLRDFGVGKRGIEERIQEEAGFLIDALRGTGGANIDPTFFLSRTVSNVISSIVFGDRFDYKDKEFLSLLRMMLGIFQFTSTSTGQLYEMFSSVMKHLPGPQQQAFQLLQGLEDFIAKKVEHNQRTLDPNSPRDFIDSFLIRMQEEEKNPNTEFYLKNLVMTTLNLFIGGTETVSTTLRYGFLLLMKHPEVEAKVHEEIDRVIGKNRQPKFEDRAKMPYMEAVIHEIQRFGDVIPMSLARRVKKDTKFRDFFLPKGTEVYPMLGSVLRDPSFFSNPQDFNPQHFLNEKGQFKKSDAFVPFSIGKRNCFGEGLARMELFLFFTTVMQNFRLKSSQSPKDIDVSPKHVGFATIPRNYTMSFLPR
Protocol: (§1) The total volume of the in vitro metabolic incubation system is 200 μL. The probe substrate concentration in the system is shown in Supplementary Table S1. […] The reaction sample was preheated in a constant temperature mixer at 37°C. Then NADP^+ was added to the system to initiate the reaction. The reaction time is 30 min, and 100 μL acetonitrile will be added on time to quickly terminate the reaction, followed by centrifugation at 4°C and 20,000 g for 20 min. The supernatant was analyzed using liquid chromatography tandem mass spectrometry (LC-MS/MS), and the activity of CYP enzymes was evaluated by the generation of probe metabolites. The mass spectrometry information of probe substrates is shown in Supplementary Table S3.
(§2) The isolated triterpenoids (1–66) were used to establish a compounds library. The inhibitory effects of 66 triterpenoids from G. lucidum on seven subtypes of CYP enzymes (CYP1A2, 2A6, 2D6, 2B6, 2C9, 2C19, 3A4) were evaluated followed the above-mentioned experimental procedures.
(§3) Table S1. The information of probes for CYPs activity assay

CYP3A4, CYP2B6, CYP2C9 = assay: in vitro; format: in vitro ADME; conditions: human
Protocol: (§4) Bupropion, artemisinin, efavirenz and sertraline are metabolized by CYP2B6. Diclofenac, valsartan, glimepiride and glibenclamide are metabolized by CYP2C9. Midazolam, imatinib, simvastatin and diltiazem are metabolized by CYP3A4.
(§5) Table S2. Information of clinical drugs
CYP subtype Drugs Metabolite Concentration Incubation time
CYP1A2 Melatonin 6-hydroxyl-melatonin 5 μM 30 min
Clozaril Demethyl-clozaril 10 μM 20 min
Riluzole Hydroxy-riluzole 5 μM 60 min
Phenacetin Deacetyl-phenacetin 40 μM 30 min
CYP2B6 Bupropion 4'-hydroxyl-bupropion 75 μM 30 min
Artemisinin Dihydroartemisinin 10 μM 30 min
Sertraline Demethyl-sertraline 5 μM 30 min
Efavirenz 8-hydroxyl-efavirenz 20 μM 30 min
CYP2C9 Diclofenac 4'-hydroxyl-diclofenac 4 μM 30 min
Valsartan 4-hydroxyl-valsartan 30 μM 30 min
Glimepiride Hydroxyl-glimepiride 50 μM 30 min
Glibenclamide Hydroxyl-glibenclamide 50 μM 30 min
CYP3A4 Midazolam 1'-hydroxyl-midazolam 5 μM 30 min
Simvastatin 6'-β-hydroxyl-simvastatin 10 μM 30 min
Diltiazem Demethyl-diltiazem 10 μM 30 min
Imatinib Demethyl-imatinib 5 μM 30 min

CYP1A2 = molecular target: T2, CYP1A2 (Homo sapiens, UniProt P05177); assay: CYP1A2 inhibition, probe/drug metabolism in human liver microsomes (LC-MS/MS); conditions: human, human liver microsomes, pH 7.4, probe phenacetin 40 μM, Residual activity (%) CYP1A2, HLM 0.5 mg/mL, phenacetin 40 μM, 30 min
T2 sequence (P05177 1-516): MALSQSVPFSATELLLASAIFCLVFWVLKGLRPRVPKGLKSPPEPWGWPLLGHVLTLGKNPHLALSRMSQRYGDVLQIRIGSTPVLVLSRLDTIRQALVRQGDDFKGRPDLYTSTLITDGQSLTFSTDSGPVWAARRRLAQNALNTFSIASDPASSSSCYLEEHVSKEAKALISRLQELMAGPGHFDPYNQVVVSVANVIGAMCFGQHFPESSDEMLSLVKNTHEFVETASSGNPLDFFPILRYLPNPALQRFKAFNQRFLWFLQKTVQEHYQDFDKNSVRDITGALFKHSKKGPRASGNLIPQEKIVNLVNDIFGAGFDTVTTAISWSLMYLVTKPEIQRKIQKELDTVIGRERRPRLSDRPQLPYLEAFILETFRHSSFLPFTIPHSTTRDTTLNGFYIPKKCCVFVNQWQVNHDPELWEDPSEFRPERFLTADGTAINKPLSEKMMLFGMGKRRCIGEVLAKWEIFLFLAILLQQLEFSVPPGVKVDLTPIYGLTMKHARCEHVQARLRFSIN
Protocol: as §1, §2
(§6) For 16 clinical drugs metabolized by CYP enzymes, potential DDI studies were conducted on triterpenoids (6, 25) of G. lucidum, and IC50 values were measured.
as §4, with “Clinical drugs: Phenacetin, melatonin, clozapine and riluzole are metabolized by CYP1A2. Bupropion,” for “Bupropion,”
as §3, §5

CYP3A4 = CYP3A4 (Homo sapiens, UniProt P08684); assay: CYP3A4 inhibition, probe/drug metabolism in human liver microsomes
Chain of CYP3A4 (P08684 whole entry): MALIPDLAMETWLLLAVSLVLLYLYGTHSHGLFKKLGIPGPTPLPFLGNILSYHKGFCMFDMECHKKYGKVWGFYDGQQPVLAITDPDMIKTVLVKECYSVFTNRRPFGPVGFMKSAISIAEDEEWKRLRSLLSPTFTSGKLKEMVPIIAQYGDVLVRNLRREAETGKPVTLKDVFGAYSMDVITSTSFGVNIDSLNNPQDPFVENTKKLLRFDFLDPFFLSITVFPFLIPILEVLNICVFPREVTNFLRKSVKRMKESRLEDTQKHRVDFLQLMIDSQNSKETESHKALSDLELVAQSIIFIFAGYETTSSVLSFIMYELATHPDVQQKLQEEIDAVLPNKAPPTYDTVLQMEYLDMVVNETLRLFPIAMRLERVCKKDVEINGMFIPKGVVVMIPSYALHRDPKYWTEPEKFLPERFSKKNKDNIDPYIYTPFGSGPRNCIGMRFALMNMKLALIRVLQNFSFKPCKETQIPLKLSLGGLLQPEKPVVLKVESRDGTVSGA
Protocol: as §1, §2, §6
as §4, with “Clinical drugs: Phenacetin, melatonin, clozapine and riluzole are metabolized by CYP1A2. Bupropion,” for “Bupropion,”
as §3, §5

CYP2B6 = molecular target: T3, CYP2B6 (Homo sapiens, UniProt P20813); assay: CYP2B6 inhibition, probe/drug metabolism in human liver microsomes
T3 sequence (P20813 1-491): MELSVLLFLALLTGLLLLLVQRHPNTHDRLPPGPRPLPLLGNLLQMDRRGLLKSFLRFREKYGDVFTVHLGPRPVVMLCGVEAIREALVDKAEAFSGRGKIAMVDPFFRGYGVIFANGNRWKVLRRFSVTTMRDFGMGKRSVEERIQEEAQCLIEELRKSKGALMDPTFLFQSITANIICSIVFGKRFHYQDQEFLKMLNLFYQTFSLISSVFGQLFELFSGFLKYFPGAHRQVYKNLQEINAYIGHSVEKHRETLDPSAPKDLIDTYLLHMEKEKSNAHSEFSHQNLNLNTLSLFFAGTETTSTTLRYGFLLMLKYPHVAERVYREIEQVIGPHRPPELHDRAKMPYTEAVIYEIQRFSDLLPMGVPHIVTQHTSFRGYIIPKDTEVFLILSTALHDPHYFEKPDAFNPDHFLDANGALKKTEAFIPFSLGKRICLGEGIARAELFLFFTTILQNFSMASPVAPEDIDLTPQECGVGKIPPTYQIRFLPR
Protocol: as §1, §2, §6
as §4, with “Clinical drugs: Phenacetin, melatonin, clozapine and riluzole are metabolized by CYP1A2. Bupropion,” for “Bupropion,”
as §3, §5

Question: Which results are given for CC(CCC(O)C(C)(O)CO)C1CCC2(C)C3=C(C(=O)CC12C)C1(C)CCC(=O)C(C)(C)C1CC3 (stereo not shown) [Compound 25, ganodrol C]?
Answer: activity at 30 min (CYP2A6): 70.1 ± 2.15%; IC50 at 30 min (CYP3A4, CYP2B6, CYP2C9): 4.5 to 25.3 µM; activity at 30 min (CYP1A2): 104 ± 18.9%; IC50 (CYP3A4; IC50 against CYP 3A4, substrate midazolam 5 μM, HLM): 4.78 µM; IC50 (CYP3A4; IC50 against metabolism of diltiazem mediated by CYP3A4, substrate diltiazem 10 μM, 30 min): 5.12 ± 0.56 µM; IC50 (CYP3A4; IC50 against metabolism of imatinib mediated by CYP3A4, substrate imatinib 5 μM, 30 min): 7.57 ± 0.2 µM; IC50 (CYP3A4; IC50 against metabolism of simvastatin mediated by CYP3A4, substrate simvastatin 10 μM, 30 min): 4.5 ± 0.48 µM; activity at 30 min (CYP3A4; human, human liver microsomes, pH 7.4, probe midazolam 5 μM, Residual activity (%) CYP3A4, HLM 0.5 mg/mL, midazolam 5 μM, 30 min): 30.1 ± 1.54%; IC50 (CYP2B6; IC50 against CYP 2B6, substrate bupropion 75 μM, HLM): 25.3 ± 3.7 µM; IC50 (CYP2B6; IC50 against metabolism of artemisinin mediated by CYP2B6, substrate artemisinin 10 μM, 30 min): 21.5 ± 3.44 µM; IC50 (CYP2B6; IC50 against metabolism of efavirenz mediated by CYP2B6, substrate efavirenz 20 μM, 30 min): 24.3 ± 3.05 µM; IC50 (CYP2B6; IC50 against metabolism of sertraline mediated by CYP2B6, substrate sertraline 5 μM, 30 min): 25.1 ± 2.86 µM; activity at 30 min (CYP2B6; human, human liver microsomes, pH 7.4, probe bupropion 75 μM, Residual activity (%) CYP2B6, HLM 0.5 mg/mL, bupropion 75 μM, 30 min): 56.8 ± 2.04%
